Reference: the supplement of paper PMC10307832

What was measured:
Test in all cases: relative viability (nuclei count vs DMSO), 5 days (fraction); higher = more cells survive
VE-821 = compound: CS(=O)(=O)c1ccc(-c2cnc(N)c(C(=O)Nc3ccccc3)n2)cc1 [VE-821]
Method in brief: (§1)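 Five library-drug doses, separated by factors of √10, were pinned into 1536-well plates holding lung cancer cell lines after an overnight stay at 37 °C. Cells were fixed, permeabilised and Hoechst-stained in one step after 5 days without medium change, then imaged at 4×. Viability compares treated-well with vehicle-well nuclei, counted in MetaXpress, as a median across plates. Passing plates had control CV below 25% and at least one doubling.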

Vismodegib = compound: CS(=O)(=O)c1ccc(C(=O)Nc2ccc(Cl)c(-c3ccccn3)c2)c(Cl)c1 [Vismodegib]
Method in brief: as §1

Ruxolitinib = compound: N#CC[C@H](C1CCCC1)n1cc(-c2ncnc3[nH]ccc23)cn1 [Ruxolitinib]
Method in brief: as §1

| Cell Line | relative viability (VE-821; 0.08 µM) | relative viability (VE-821; 0.253 µM) | relative viability (VE-821; 0.8 µM) | relative viability (VE-821; 2.53 µM) | relative viability (VE-821; 8 µM) | relative viability (Vismodegib; 0.08 µM) | relative viability (Vismodegib; 0.253 µM) | relative viability (Vismodegib; 0.8 µM) | relative viability (Vismodegib; 2.53 µM) | relative viability (Vismodegib; 8 µM) | relative viability (Ruxolitinib; 0.08 µM) | relative viability (Ruxolitinib; 0.253 µM) | relative viability (Ruxolitinib; 0.8 µM) | relative viability (Ruxolitinib; 2.53 µM) | relative viability (Ruxolitinib; 8 µM) |
| --- | --- | --- | --- | --- | --- | --- | --- | --- | --- | --- | --- | --- | --- | --- | --- |
| 201T | 1.03 | 0.94 | 0.937 | 1.01 | 0.703 | 0.983 | 0.942 | 0.977 | 0.964 | 0.968 | 1.05 | 1.1 | 1.18 | 1.19 | 1.1 |
| A549 | 1.11 | 0.939 | 0.927 | 0.954 | 0.738 | 0.964 | 0.91 | 0.936 | 0.915 | 0.971 | 0.934 | 0.965 | 1.11 | 0.941 | 0.736 |
| A-427 | 1.1 | 0.878 | 0.992 | 0.986 | 0.468 | 1 | 0.94 | 0.933 | 0.988 | 1.01 | 0.982 | 1.02 | 1.12 | 0.902 | 0.844 |
| ABC-1 | 1.09 | 0.882 | 0.907 | 1.03 | 0.749 | 0.963 | 0.854 | 0.96 | 0.81 | 0.988 |  | 1.01 | 1.11 | 0.882 | 0.782 |
| BEN | 0.977 | 1.01 | 0.849 | 1.03 | 0.885 | 1 | 1.02 | 0.891 | 0.926 | 1.02 | 0.992 | 0.938 | 1.14 | 0.965 | 1.07 |
| CAL-12T | 1.02 | 0.947 | 1.04 | 0.927 | 0.844 | 1.01 | 0.955 | 0.976 | 0.945 | 0.959 | 0.918 | 0.997 | 1.11 | 0.792 | 0.696 |
| COR-L23 | 1.12 | 0.953 | 1.15 | 1.11 | 0.866 | 0.981 | 0.933 | 1.03 | 1.02 | 1.05 | 1.07 | 0.995 | 1.09 | 0.981 | 0.785 |
| COR-L 105 | 0.782 | 0.811 | 0.776 | 0.794 | 0.574 | 0.968 | 0.817 | 0.959 | 0.961 | 0.96 | 0.76 | 0.863 | 0.914 | 0.824 | 0.695 |
| Calu-6 | 1.13 | 0.97 | 0.905 | 0.937 | 0.607 | 1.03 | 0.957 | 1.03 | 1.01 | 1.05 | 1.03 | 1.03 | 1.12 | 0.893 | 0.67 |
| ChaGo-K-1 | 1.03 | 0.882 | 1 | 0.967 | 0.738 | 0.932 | 1 | 1.03 | 0.959 | 0.97 | 1.04 | 0.928 | 0.947 | 0.872 | 0.735 |
| EBC-1 | 1.07 | 0.894 | 0.865 | 1.05 | 0.759 | 0.931 | 0.965 | 1.12 | 0.963 | 1.06 | 0.981 | 1.04 | 1.1 | 0.924 | 0.822 |
| EKVX | 1.12 | 0.997 | 0.937 | 1.08 | 0.855 | 0.797 | 0.945 | 0.944 | 0.968 | 0.941 | 0.753 | 0.836 | 1 | 0.898 | 0.742 |
| EMC-BAC-2 | 1.18 | 0.896 | 1.02 | 0.965 | 0.858 | 0.99 | 0.953 | 0.903 | 1.01 | 0.934 | 0.974 | 0.946 | 1.06 | 0.978 | 0.678 |
| EPLC-272H | 1.06 | 0.916 | 1.08 | 1.02 | 0.663 | 0.936 | 0.942 | 0.875 | 0.952 | 0.863 | 0.966 | 0.894 | 0.933 | 0.906 | 0.818 |
| H3255 | 0.987 | 0.961 | 0.92 | 1.06 | 0.944 | 0.921 | 0.921 | 0.951 | 0.936 | 0.962 | 0.73 | 0.938 | 1.09 | 0.969 | 0.811 |
| HARA | 1.09 | 0.747 | 0.954 | 1.12 | 0.812 | 1 | 0.883 | 0.883 | 0.971 | 0.954 | 0.936 | 1.01 | 1.03 | 0.935 | 0.88 |
| HCC-15 | 1.09 | 0.966 | 1.08 | 1.21 | 0.996 | 1.03 | 0.973 | 0.977 | 1.04 | 0.959 | 1.01 | 0.984 | 1.07 | 0.943 | 0.811 |
| HCC-44 | 1 | 0.962 | 1.06 | 1.04 | 1.04 | 1.01 | 0.94 | 0.938 | 0.934 | 1.01 | 0.958 | 0.939 | 1.04 | 1.02 | 0.843 |
| HCC-78 | 1.1 | 0.863 | 0.887 | 1.04 | 0.756 | 0.82 | 0.914 | 0.875 | 0.902 | 0.865 | 0.831 | 0.717 | 0.869 | 0.853 | 0.743 |
| HCC-366 | 1.06 | 1.01 | 0.85 | 0.925 | 0.191 | 0.997 | 1.04 | 0.998 | 0.984 | 1 | 1.07 | 0.984 | 1.05 | 1.03 | 0.932 |
| HCC-827 | 1.06 | 1.02 | 1.1 | 1.06 | 1.04 | 1.04 | 1.01 | 1.04 | 1.03 | 1.03 |  | 1.01 | 0.891 | 0.859 | 0.901 |
| HOP-62 | 1.11 | 0.997 | 1.02 | 1.18 | 1.02 | 0.998 | 0.954 | 0.94 | 0.96 | 1 | 0.976 | 1.04 | 1.09 | 1.05 | 0.972 |
| IA-LM | 1.02 | 0.874 | 0.999 | 1.06 | 0.808 | 0.883 | 0.963 | 0.964 | 0.85 | 0.876 | 0.855 | 1.02 | 1.08 | 1.05 | 0.888 |
